The text below walks through data of US20040152747A1, “Thiazole compounds for treatment of neurodegenerative disorders” (Pfizer Inc, priority 2002, published 2004).

SMILES strings stand for the structures.

As a reminder, the IC50 is the concentration that gives 50% inhibition.

For the experiment, the system named is gamma-secretase. As to the kind of experiment: gamma-secretase activity in a solubilized membrane preparation (cell-free assay, McLendon et al.). To be noted: read-out: IC50 activity for inhibiting gamma-secretase activity. The experiment is classed as biochemical. The method, then: The activity of compounds of the invention in inhibiting gamma-secretase activity was determined in a solubilized membrane preparation generally according to the description provided in McLendon et al. Cell-free assays for γ-secretase activity, The FASEB Journal (Vol. 14, December 2000, pp. 2383-2386).

On to `CCC(NC(=O)Cc1cc(F)cc(F)c1)C(=O)Nc1ncc(-c2ccc(Br)s2)s1` (stereo not shown) [Example 11, N-[5-(5-bromo-thiophen-2-yl)-thiazol-2-yl]-2-[2-(3,5-difluoro-phenyl)-acetylamino]-butyramide], for which the IC50 was around 5 µM.
